The subject of one experiment is DU-145. The experiment can be described thus: Antiproliferative activity against human DU-145 cells assessed as inhibition of cell proliferation. It is filed as functional, cell-based.
Another experiment deals with HCT-15. In words: Antiproliferative activity against human HCT-15 cells assessed as inhibition of cell proliferation. It is filed as functional, cell-based.
In experiment [1] the target is DNA topoisomerase 2-alpha (Homo sapiens) (UniProt P11388). The experiment can be described thus: Inhibition of topoisomerase 2alpha (unknown origin) assessed as relaxation of supercoiled plasmid pBR322 DNA at 100 uM relative to control.
Sequence of DNA topoisomerase 2-alpha (Homo sapiens) (P11388 whole entry): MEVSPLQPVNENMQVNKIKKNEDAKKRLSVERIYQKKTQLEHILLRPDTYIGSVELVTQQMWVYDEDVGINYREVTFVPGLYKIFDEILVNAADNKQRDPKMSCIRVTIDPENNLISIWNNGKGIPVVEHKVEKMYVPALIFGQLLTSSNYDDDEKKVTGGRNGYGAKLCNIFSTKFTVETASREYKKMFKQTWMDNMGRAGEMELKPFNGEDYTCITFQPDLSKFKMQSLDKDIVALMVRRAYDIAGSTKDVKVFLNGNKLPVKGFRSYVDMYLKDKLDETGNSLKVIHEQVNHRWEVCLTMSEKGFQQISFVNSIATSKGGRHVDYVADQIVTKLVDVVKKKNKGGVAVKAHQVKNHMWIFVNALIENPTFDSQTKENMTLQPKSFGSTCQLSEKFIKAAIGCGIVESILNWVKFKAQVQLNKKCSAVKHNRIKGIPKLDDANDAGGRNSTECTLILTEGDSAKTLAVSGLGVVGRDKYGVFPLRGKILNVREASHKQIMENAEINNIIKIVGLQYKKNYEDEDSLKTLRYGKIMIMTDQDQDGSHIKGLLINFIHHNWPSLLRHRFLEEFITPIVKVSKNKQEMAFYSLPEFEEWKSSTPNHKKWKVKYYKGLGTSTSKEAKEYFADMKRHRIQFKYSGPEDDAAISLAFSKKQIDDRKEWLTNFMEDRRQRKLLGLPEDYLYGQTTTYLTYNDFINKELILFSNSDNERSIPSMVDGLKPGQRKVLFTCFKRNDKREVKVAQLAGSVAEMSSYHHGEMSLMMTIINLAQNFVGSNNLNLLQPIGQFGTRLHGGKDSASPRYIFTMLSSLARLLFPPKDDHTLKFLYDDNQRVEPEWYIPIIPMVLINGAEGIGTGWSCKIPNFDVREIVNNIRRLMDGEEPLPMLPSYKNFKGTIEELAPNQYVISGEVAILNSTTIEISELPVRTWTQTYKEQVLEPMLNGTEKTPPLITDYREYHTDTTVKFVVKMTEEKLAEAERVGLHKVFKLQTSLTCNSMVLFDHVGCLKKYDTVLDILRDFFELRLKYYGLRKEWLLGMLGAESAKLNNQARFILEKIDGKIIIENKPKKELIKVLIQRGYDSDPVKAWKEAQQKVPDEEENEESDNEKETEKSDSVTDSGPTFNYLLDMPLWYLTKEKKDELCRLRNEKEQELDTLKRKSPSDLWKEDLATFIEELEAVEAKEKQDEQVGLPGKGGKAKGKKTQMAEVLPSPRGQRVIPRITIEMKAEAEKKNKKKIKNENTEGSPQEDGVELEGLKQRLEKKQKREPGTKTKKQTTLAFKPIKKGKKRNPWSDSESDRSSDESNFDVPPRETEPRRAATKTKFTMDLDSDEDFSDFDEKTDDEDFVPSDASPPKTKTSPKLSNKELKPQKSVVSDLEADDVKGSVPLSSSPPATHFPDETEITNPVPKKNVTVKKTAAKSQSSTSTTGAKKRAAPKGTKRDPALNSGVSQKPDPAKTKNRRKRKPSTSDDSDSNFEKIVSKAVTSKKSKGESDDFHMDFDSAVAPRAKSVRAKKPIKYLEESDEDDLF
The subject of a further experiment is T47D. In words: Antiproliferative activity against human T47D cells assessed as inhibition of cell proliferation. It is filed as functional, cell-based.
The test system of the next experiment is HeLa. In words: Antiproliferative activity against human HeLa cells assessed as inhibition of cell proliferation. It counts as functional, cell-based.
In experiment [2] the target is DNA topoisomerase 2-alpha (Homo sapiens) (UniProt P11388). The experiment can be described thus: Inhibition of topoisomerase 2alpha (unknown origin) assessed as relaxation of supercoiled plasmid pBR322 DNA at 20 uM relative to control.

Turning to `Oc1ccc(-c2cc(-c3cccc(F)c3)cc(-c3cccc(O)c3)n2)cc1`, the IC50 in the experiment with DU-145 came out at 2.7 µM; in the experiment with HCT-15, 3.07 µM; in the experiment on T47D, 3.51 µM; in the experiment with HeLa, 14.2 µM. Also, the inhibition in experiment [1] stood at 73.9%; in experiment [2], 36.1%.

On to `Oc1ccc(-c2cc(-c3cccc(OC(F)(F)F)c3)cc(-c3cccc(O)c3)n2)cc1`, for which the IC50 turned out to be 5.67 µM in the experiment with DU-145, 1.73 µM in the experiment with HCT-15, 5.04 µM with T47D and 14.1 µM in the experiment on HeLa. Besides, the inhibition in experiment [1] was 43.4%; in experiment [2], 7.4%.

As to `Oc1ccc(-c2cc(-c3ccc(C(F)(F)F)cc3)cc(-c3cccc(O)c3)n2)cc1`, the half-inhibitory concentration (IC50) was over 50 µM in the experiment with DU-145, 6.44 µM with HCT-15, 2.87 µM in the experiment on T47D and 17.3 µM in the experiment on HeLa. Moreover, the inhibition in experiment [1] stood at 44.1%; in experiment [2], 4.1%.

`Oc1cccc(-c2cc(-c3ccc(F)cc3)cc(-c3cccc(O)c3)n2)c1`: the 50% inhibitory concentration (IC50) was found to be 7.12 µM with DU-145, 6.31 µM in the experiment on HCT-15, 6.87 µM in the experiment on T47D and 1.28 µM with HeLa. Further, the values for the inhibition in experiment [1] and in experiment [2] were 36.6% and 4.9%, respectively.

For `Oc1ccc(-c2cc(-c3ccc(F)cc3)cc(-c3cccc(O)c3)n2)cc1`, the IC50 with DU-145 stood at 15.2 µM; in the experiment on HCT-15, 5.02 µM; with T47D, 5 µM; with HeLa, 8.08 µM. Also, the inhibition in experiment [1] worked out at 43.7%; in experiment [2] it was 30.4%.

For the compound `Oc1ccc(-c2cc(-c3ccccc3OC(F)(F)F)cc(-c3ccc(O)cc3)n2)cc1`, the 50% inhibitory concentration (IC50) with DU-145 was 16 µM; with HCT-15 it was 7.76 µM; with T47D, 9.84 µM; with HeLa it was 44.6 µM. The inhibition came to 42.2% in experiment [1] and 4.3% in experiment [2].

On to `Oc1cccc(-c2cc(-c3ccccc3OC(F)(F)F)cc(-c3cccc(O)c3)n2)c1`, for which the 50% inhibitory concentration (IC50) stood at 5.42 µM in the experiment on DU-145, 4.22 µM in the experiment with HCT-15, 7.95 µM in the experiment with T47D and 16.7 µM in the experiment with HeLa. The inhibition in experiment [1] amounted to 33.4%; in experiment [2], 6.7%.

As for `Oc1ccc(-c2cc(-c3ccccc3C(F)(F)F)cc(-c3cccc(O)c3)n2)cc1`, the 50% inhibitory concentration (IC50) in the experiment with DU-145 is 2.75 µM; with HCT-15 it was 5.74 µM; in the experiment on T47D, 3.21 µM; in the experiment on HeLa, 17.4 µM. Besides, the figures for the inhibition in experiment [1] and in experiment [2] were 61.9% and 2.2%, respectively.

As to `Oc1ccc(-c2cc(-c3ccc(OC(F)(F)F)cc3)cc(-c3ccc(O)cc3)n2)cc1`, the IC50 with DU-145 stood at 5.39 µM; in the experiment with HCT-15, 13.9 µM; with T47D it was 5.15 µM; with HeLa it was 16.9 µM. Also, the inhibition in experiment [1] worked out at 59%; in experiment [2], 6.4%.

Consider `Oc1ccccc1-c1cc(-c2cccc(F)c2)cc(-c2ccccc2O)n1`, for which the half-maximal inhibitory concentration (IC50) in the experiment with DU-145, in the experiment with HCT-15, with T47D and in the experiment on HeLa was over 50 µM each time. Besides, the inhibition in experiment [1] stood at 0%.

Take `Oc1ccc(-c2cc(-c3ccc(C(F)(F)F)cc3)cc(-c3ccc(O)cc3)n2)cc1`: the 50% inhibitory concentration (IC50) in the experiment on DU-145, in the experiment with HCT-15, in the experiment with T47D and in the experiment on HeLa was over 50 µM in each case. In addition, the inhibition in experiment [1] was 0.2%.

Regarding `Oc1ccc(-c2cc(-c3ccccc3F)cc(-c3ccccc3O)n2)cc1`, the concentration for half-maximal inhibition (IC50) in the experiment with DU-145, in the experiment on HCT-15, in the experiment on T47D and in the experiment with HeLa was over 50 µM each time. In experiment [1], the inhibition was 0.2%.

On to `Oc1cccc(-c2cc(-c3cccc(F)c3)cc(-c3cccc(O)c3)n2)c1`, for which the 50% inhibitory concentration (IC50) in the experiment on DU-145 turned out to be 23.8 µM; in the experiment on HCT-15 it was 7.86 µM; in the experiment with T47D, 21.3 µM; in the experiment with HeLa, 1.4 µM. For the same compound, the inhibition in experiment [1] was found to be 4.9%.

Consider `Oc1ccc(-c2cc(-c3ccc(OC(F)(F)F)cc3)cc(-c3cccc(O)c3)n2)cc1`, for which the IC50 came out at 18.1 µM in the experiment with DU-145, 1.38 µM with HCT-15, 18.9 µM with T47D and 27.8 µM in the experiment with HeLa. The inhibition in experiment [1] was determined as 4.4%.

For `Oc1cccc(-c2cc(-c3cccc(C(F)(F)F)c3)cc(-c3ccccc3O)n2)c1`, the 50% inhibitory concentration (IC50) came to 13 µM in the experiment with DU-145, 6.46 µM in the experiment on HCT-15, 6.34 µM in the experiment with T47D and 19.5 µM in the experiment with HeLa. Besides, the inhibition in experiment [1] amounted to 0.6%.

In the case of `Oc1ccc(-c2cc(-c3cccc(F)c3)cc(-c3ccccc3O)n2)cc1`, the concentration for half-maximal inhibition (IC50) in the experiment on DU-145, with HCT-15, in the experiment on T47D and in the experiment on HeLa was over 50 µM throughout. Also, the inhibition in experiment [1] turned out to be 16.3%.

In the case of `Oc1ccc(-c2cc(-c3ccc(OC(F)(F)F)cc3)cc(-c3ccccc3O)n2)cc1`, the IC50 in the experiment on DU-145, with HCT-15, in the experiment with T47D and in the experiment on HeLa was over 50 µM each time. The inhibition in experiment [1] worked out at 0%.

For `Oc1cccc(-c2cc(-c3ccccc3C(F)(F)F)cc(-c3ccccc3O)n2)c1`, the IC50 in the experiment on DU-145 came out at 7.25 µM; with HCT-15 it was 9.01 µM; in the experiment with T47D it was 5.68 µM; in the experiment on HeLa, 16.8 µM. Further, the inhibition in experiment [1] turned out to be 2.6%.

In the case of `Oc1ccc(-c2cc(-c3ccccc3C(F)(F)F)cc(-c3ccccc3O)n2)cc1`, the concentration for half-maximal inhibition (IC50) amounted to 6.69 µM in the experiment with DU-145, 8.99 µM with HCT-15, 7.18 µM with T47D and 16.5 µM in the experiment on HeLa. The inhibition in experiment [1] came out at 0%.

In the case of `Oc1cccc(-c2cc(-c3ccc(C(F)(F)F)cc3)cc(-c3cccc(O)c3)n2)c1`, the half-inhibitory concentration (IC50) with DU-145 was 33.5 µM; in the experiment with HCT-15 it was over 50 µM; in the experiment with T47D, 2.33 µM; in the experiment with HeLa, over 50 µM. Further, in experiment [1], the inhibition came to 24%.

`Oc1ccc(-c2cc(-c3cccc(F)c3)cc(-c3ccc(O)cc3)n2)cc1`: the concentration for half-maximal inhibition (IC50) was 9.29 µM in the experiment on DU-145, over 50 µM in the experiment on HCT-15, over 50 µM with T47D and over 50 µM in the experiment with HeLa. The inhibition in experiment [1] was 0%.

For `Oc1ccc(-c2cc(-c3cccc(OC(F)(F)F)c3)cc(-c3ccccc3O)n2)cc1`, the IC50 in the experiment on DU-145, with HCT-15, in the experiment on T47D and in the experiment with HeLa was over 50 µM in each case. For the same compound, the inhibition in experiment [1] was 0%.

Consider `COc1cc([C@@H]2c3cc4c(cc3[C@@H](O[C@@H]3O[C@@H]5CO[C@@H](C)O[C@H]5[C@H](O)[C@H]3O)[C@H]3COC(=O)[C@H]23)OCO4)cc(OC)c1O` [ETOPOSIDE], for which the results for the half-inhibitory concentration (IC50) in the experiment on DU-145, in the experiment on T47D and with HeLa were 7.47 µM, 5.82 µM and 7.01 µM, respectively. The inhibition in experiment [2] was 21.2%.

Consider `Oc1cccc(-c2cc(-c3cccc(C(F)(F)F)c3)cc(-c3cccc(O)c3)n2)c1`, for which the IC50 with DU-145 was over 50 µM; with HCT-15, 13.6 µM; with T47D, 4.97 µM; with HeLa, 12.7 µM. The inhibition in experiment [1] stood at 25.2%.

`Oc1ccccc1-c1cc(-c2cccc(OC(F)(F)F)c2)cc(-c2ccccc2O)n1`: the 50% inhibitory concentration (IC50) was 7.47 µM in the experiment with DU-145, over 50 µM in the experiment on HCT-15, over 50 µM in the experiment on T47D and over 50 µM in the experiment on HeLa. In addition, in experiment [1], the inhibition stood at 14.8%.
